Laboratory results as given in PMC5397059, “Design, synthesis and structure-activity relationship study of wollamide B; a new potential anti TB agent” (PLoS ONE, 2017).
Read-outs that look alike come from different tables or passages of the source.

Details: amide bond, 18-membered ring, HATU/HOBt/DIEA

**Q.** With `CC(C)C[C@@H]1NC(=O)[C@H](Cc2cn(C(=O)OC(C)(C)C)c3ccccc23)NC(=O)[C@@H](CCCNC(=O)OC(C)(C)C)NC(=O)[C@H](CC(=O)NC(c2ccccc2)(c2ccccc2)c2ccccc2)NC(=O)[C@H](C(C)C)N(C)C(=O)[C@@H](CC(C)C)NC1=O` [cyclo(D-Leu-N-Me-Val-Asn(Trt)-D-Orn(Boc)-Trp(Boc)-Leu)] as the compound, how does the ring closure, isolated yield (from H-dLeu-MeVal-Asn(Trt)-dOrn(Boc)-Trp(Boc)-Leu-OH) read?
**A.** Its ring closure, isolated yield is 60%.

**Q.** With `COc1ccc(C[C@@H]2NC(=O)[C@@H](CCCNC(=O)OC(C)(C)C)NC(=O)[C@H](CC(=O)NC(c3ccccc3)(c3ccccc3)c3ccccc3)NC(=O)[C@H](C(C)C)NC(=O)[C@@H](CC(C)C)NC(=O)[C@H](CC(C)C)NC2=O)cc1` [cyclo(D-Leu-Val-Asn(Trt)-D-Orn(Boc)-Phe(4-OMe)-Leu)] as the compound, how does the ring closure, isolated yield (from H-dLeu-Val-Asn(Trt)-dOrn(Boc)-Phe(4-OMe)-Leu-OH) read?
**A.** Its ring closure, isolated yield is 41%.

**Q.** With `CC(C)C[C@@H]1NC(=O)[C@H](Cc2cn(C(=O)OC(C)(C)C)c3ccccc23)NC(=O)[C@@H](CCCNC(=O)OC(C)(C)C)NC(=O)[C@@H](CCCNC(=O)OC(C)(C)C)NC(=O)[C@H](C(C)C)NC(=O)[C@@H](CC(C)C)NC1=O` [cyclo(D-Leu-Val-D-Orn(Boc)-D-Orn(Boc)-Trp(Boc)-Leu)] as the compound, how does the ring closure, isolated yield (from H-dLeu-Val-dOrn(Boc)-dOrn(Boc)-Trp(Boc)-Leu-OH) read?
**A.** Its ring closure, isolated yield is 40%.

**Q.** Which ring closure, isolated yield (from H-dPhe(4-Cl)-Ile-dOrn(Boc)-dOrn(Boc)-Trp(Boc)-Leu-OH) does the source give for `CC[C@H](C)[C@@H]1NC(=O)[C@@H](Cc2ccc(Cl)cc2)NC(=O)[C@H](CC(C)C)NC(=O)[C@H](Cc2cn(C(=O)OC(C)(C)C)c3ccccc23)NC(=O)[C@@H](CCCNC(=O)OC(C)(C)C)NC(=O)[C@@H](CCCNC(=O)OC(C)(C)C)NC1=O` [cyclo(D-Phe (4-Cl)-Ile-D-Orn(Boc)-D-Orn(Boc)-Trp(Boc)-Leu)] here?
**A.** Its ring closure, isolated yield is 55%.

**Q.** With `CC(C)C[C@@H]1NC(=O)[C@H](Cc2cn(C(=O)OC(C)(C)C)c3ccccc23)NC(=O)[C@@H](CCCNC(=O)OC(C)(C)C)NC(=O)[C@H](CC(=O)NC(c2ccccc2)(c2ccccc2)c2ccccc2)NC(=O)[C@H](C(C)C)NC(=O)[C@@H](Cc2ccc(Cl)cc2)NC1=O` [cyclo(D-Phe(4-Cl)-Val-Asn(Trt)-D-Orn(Boc)-Trp(Boc)-Leu)] as the compound, how does the ring closure, isolated yield (from H-dPhe(4-Cl)-Val-Asn(Trt)-dOrn(Boc)-Trp(Boc)-Leu-OH) read?
**A.** Its ring closure, isolated yield is 53%.

**Q.** For `CC(C)C[C@@H]1NC(=O)[C@@H](CC(C)C)NC(=O)[C@H](C(C)C)NC(=O)[C@H](CC(=O)NC(c2ccccc2)(c2ccccc2)c2ccccc2)NC(=O)[C@@H](CCCNC(=O)OC(C)(C)C)NC(=O)[C@H](Cc2cn(C(=O)OC(C)(C)C)c3ccccc23)NC1=O` [cyclo(Trp (Boc)-D-Orn (Boc)-Asn(Trt)-Val-D-Leu-Leu)], which ring closure, isolated yield (from H-Trp(Boc)-dOrn(Boc)-Asn(Trt)-Val-dLeu-Leu-OH, DMF, 1.0 mM) is on record?
**A.** The ring closure, isolated yield was 50%.

**Q.** For `CC(C)C[C@H]1NC(=O)[C@H](C)NC(=O)[C@H](Cc2cn(C(=O)OC(C)(C)C)c3ccccc23)NC(=O)[C@@H](CCCNC(=O)OC(C)(C)C)NC(=O)[C@H](CC(=O)NC(c2ccccc2)(c2ccccc2)c2ccccc2)NC(=O)[C@H](C(C)C)NC1=O` [cyclo(Trp (Boc)-D-Orn(Boc)-Asn(Trt)-Val-D-Leu-Ala)], which ring closure, isolated yield (from H-dLeu-Val-Asn(Trt)-dOrn(Boc)-Trp(Boc)-Ala-OH) is on record?
**A.** The ring closure, isolated yield was 45%.

**Q.** With `CC(C)C[C@@H]1NC(=O)[C@H](Cc2cn(C(=O)OC(C)(C)C)c3ccccc23)NC(=O)[C@@H](CCCNC(=O)OC(C)(C)C)NC(=O)[C@H](C)NC(=O)[C@H](C(C)C)NC(=O)[C@@H](CC(C)C)NC1=O` [cyclo(Trp(Boc)-D-Orn(Boc)-Ala-Val-D-Leu-Leu)] as the compound, how does the ring closure, isolated yield (from H-dLeu-Val-Ala-dOrn(Boc)-Trp(Boc)-Leu-OH) read?
**A.** Its ring closure, isolated yield is 56%.

**Q.** Which ring closure, isolated yield (from H-dLeu-Ala-Asn(Trt)-dOrn(Boc)-Trp(Boc)-Leu-OH) does the source give for `CC(C)C[C@@H]1NC(=O)[C@H](Cc2cn(C(=O)OC(C)(C)C)c3ccccc23)NC(=O)[C@@H](CCCNC(=O)OC(C)(C)C)NC(=O)[C@H](CC(=O)NC(c2ccccc2)(c2ccccc2)c2ccccc2)NC(=O)[C@H](C)NC(=O)[C@@H](CC(C)C)NC1=O` [cyclo(Trp(Boc)-D-Orn(Boc)-Asn(Trt)-Ala-D-Leu-Leu)] here?
**A.** Its ring closure, isolated yield is 56%.

**Q.** For `CC(C)C[C@@H]1NC(=O)[C@H](Cc2cn(C(=O)OC(C)(C)C)c3ccccc23)NC(=O)[C@@H](CCCNC(=O)OC(C)(C)C)NC(=O)[C@H](CC(=O)NC(c2ccccc2)(c2ccccc2)c2ccccc2)NC(=O)[C@H](C(C)C)NC(=O)[C@@H](C)NC1=O` [cyclo(Trp(Boc)-D-Orn(Boc)-Asn(Trt)-Val-D-Ala-Leu)], which ring closure, isolated yield (from H-dAla-Val-Asn(Trt)-dOrn(Boc)-Trp(Boc)-Leu-OH) is on record?
**A.** The ring closure, isolated yield was 64%.

**Q.** Which ring closure, isolated yield (from H-Trp(Boc)-Leu-dLeu-Ile-Ser(tBu)-dOrn(Boc)-OH) does the source give for `CC[C@H](C)[C@@H]1NC(=O)[C@@H](CC(C)C)NC(=O)[C@H](CC(C)C)NC(=O)[C@H](Cc2cn(C(=O)OC(C)(C)C)c3ccccc23)NC(=O)[C@@H](CCCNC(=O)OC(C)(C)C)NC(=O)[C@H](COC(C)(C)C)NC1=O` [cyclo(Trp(Boc)-Leu-D-Leu-Ile-Ser(tBu)-D-Orn(Boc))] here?
**A.** The ring closure, isolated yield was 68%.

**Q.** With `CC(C)C[C@@H]1NC(=O)[C@H](Cc2cn(C(=O)OC(C)(C)C)c3ccccc23)NC(=O)[C@@H](CCCNC(=O)OC(C)(C)C)NC(=O)[C@H](CC(=O)NC(c2ccccc2)(c2ccccc2)c2ccccc2)N(C)C(=O)[C@H](C(C)C)NC(=O)[C@@H](CC(C)C)N(C)C1=O` [cyclo(Trp(Boc)-Leu-N-Me-D-Leu-Val-N-Me-Asn(Trt)-D-Orn(Boc))] as the compound, how does the ring closure, isolated yield (from H-Trp(Boc)-Leu-dMeLeu-Val-MeAsn(Trt)-dOrn(Boc)-OH) read?
**A.** The ring closure, isolated yield was 60%.

**Q.** With `CC(C)C[C@H]1NC(=O)[C@H](CC(C)C)N(C)C(=O)[C@H](Cc2cn(C(=O)OC(C)(C)C)c3ccccc23)NC(=O)[C@@H](CCCNC(=O)OC(C)(C)C)NC(=O)[C@H](CC(=O)NC(c2ccccc2)(c2ccccc2)c2ccccc2)N(C)C(=O)[C@H](C(C)C)NC1=O` [cyclo(Val-N-Me-Asn(Trt)-D-Orn(Boc)-Trp(Boc)-N-Me-Leu-D-Leu)] as the compound, how does the ring closure, isolated yield (from H-Val-MeAsn(Trt)-dOrn(Boc)-Trp(Boc)-MeLeu-dLeu-OH) read?
**A.** The ring closure, isolated yield was 80%.

**Q.** With “cyclo(D-Phe(4-Cl)-D-Orn(Boc)-Asn(Trt)-Val-D-Leu-Leu)” as the compound, how does the ring closure, isolated yield read?
**A.** Its ring closure, isolated yield is 43%.
